The source of these data is publication PMC4184702 (Pharmacology Research & Perspectives, 2014).

One data set has as its system LS and HS α4β2-nAChR. Further details: method as in Mineur et al. [2009]. The note with it: relative to that of ACh; ref Mineur et al. [2009]; cited from earlier work.
Another data set concerns the target α7* nAChR. The note with it: Figure 1, cited from earlier work.
The next data set relates to C57BL/6J mice. The note with it: ref Mineur et al. [2009], cited from earlier work; for latency to eat in NSF: 14 days repeat treatment, C57BL/6J mice, [2011].
A further data set has as its target α4β2* nAChR. As to conditions: Figure 1, cited from earlier work.
The target of a further data set is α3β4* nAChR. Further details: method as in Mineur et al. ([2009]). As to conditions: Figure 1; ref Mineur et al. ([2009]); cited from earlier work.
The test system of the next data set is Male C57 BL6 mice. Kind of data set: SmartCube test. As to conditions: for SmartCube behavioral signature: both tested doses, 15 min preinjection. It counts as in vivo, mouse. As to the method: Male C57 BL6 mice (Taconic Farms) were used in the SmartCube® assay (PsychoGenics Inc., Tarrytown, NY). Mice were received at 7 weeks old and group-housed in OptiMICE ventilated cages with four mice/cage. Mice were acclimated to the colony room for at least 1 week prior to the first injections. All animals were tested in SmartCube® at 8 10 weeks old.
To acquire initial in vivo evaluation of our nicotinic ligands for behavioral effects relevant to psychiatric diseases, we used SmartCube®, an automated system in which mouse behavior is captured by digital video using novel, proprietary hardware that presents multiple challenges in a single test session and is analyzed with computer algorithms. Digital videos of the subjects are processed with computer vision algorithms to extract more than 1400 dependent measures including frequency and duration of behavioral states such as grooming, rearing, etc., and many other features obtained during the test session. Using machine learning techniques chosen to best separate pharmacological effects of reference compounds, the behavioral signatures of the mutant mice are then assessed quantitatively.
The most dominant of the features collected that define the drug class signature are identified and ranked using complex proprietary bioinformatics algorithms. The outcome of a SmartCube® run is a set of more than 1400 features (behavioral parameters) that can be used for various analyses. Many of these features are correlated (e.g., rearing counts and supported rearing counts). Therefore, we form statistically independent combinations of the original features (further referred to as decorrelated features) that discriminate between the groups more effectively. Next, we apply a proprietary feature ranking algorithm to score each feature discrimination power to weight each feature change by its relevance. The data obtained in this way are used to define drug signatures for known reference compounds and to establish therapeutic class signatures against which a test sample can be compared. The neuropharmacological effects of a test compound can be predicted by similarity to major classes of compounds, such as antipsychotics, anxiolytics, and antidepressants (Roberds et al. [2011]).
Mice are taken in their home cage to the SmartCube® suite of experimental rooms where they remain until they are placed in the apparatus for a single testing session. A standard SmartCube® protocol runs for a single session (∼45 min). After the session mice are group-housed again and brought back to the colony room. Any abnormal behavior is noted. […] At least 12 mice were used in each treatment group.

The target in another data set is α3β4 nAChR. The note with it: Figure 1, cited from earlier work.
For the next data set, the target named is α4β2 nAChR. The note with it: Figure 1, cited from earlier work.
The subject of the next data set is mice. As to conditions: ref Mineur et al. [2009]; cited from earlier work.
The target of a further data set is T1, human α3β4*-nAChR (Homo sapiens, UniProt P30926+P32297).
T1 construct: SH-SY5Y naturally expresses autonomic α3β4*-nAChRs; endogenous in cells; host or cells: SH-SY5Y human neuroblastoma cells
T1 sequence (P32297 32-505): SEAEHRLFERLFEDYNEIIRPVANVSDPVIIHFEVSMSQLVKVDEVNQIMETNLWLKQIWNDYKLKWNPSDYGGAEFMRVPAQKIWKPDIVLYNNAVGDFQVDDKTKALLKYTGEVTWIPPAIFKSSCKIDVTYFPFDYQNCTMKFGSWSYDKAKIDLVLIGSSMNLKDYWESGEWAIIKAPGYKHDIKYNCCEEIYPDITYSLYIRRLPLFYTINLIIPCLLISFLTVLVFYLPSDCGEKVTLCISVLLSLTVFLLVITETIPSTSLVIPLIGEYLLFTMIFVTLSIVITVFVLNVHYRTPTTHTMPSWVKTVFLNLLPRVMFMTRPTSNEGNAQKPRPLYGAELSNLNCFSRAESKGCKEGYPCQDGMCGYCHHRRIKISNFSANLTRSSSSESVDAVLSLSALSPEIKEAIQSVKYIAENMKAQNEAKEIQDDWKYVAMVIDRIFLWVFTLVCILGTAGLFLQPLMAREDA
T1 sequence (P30926 22-498): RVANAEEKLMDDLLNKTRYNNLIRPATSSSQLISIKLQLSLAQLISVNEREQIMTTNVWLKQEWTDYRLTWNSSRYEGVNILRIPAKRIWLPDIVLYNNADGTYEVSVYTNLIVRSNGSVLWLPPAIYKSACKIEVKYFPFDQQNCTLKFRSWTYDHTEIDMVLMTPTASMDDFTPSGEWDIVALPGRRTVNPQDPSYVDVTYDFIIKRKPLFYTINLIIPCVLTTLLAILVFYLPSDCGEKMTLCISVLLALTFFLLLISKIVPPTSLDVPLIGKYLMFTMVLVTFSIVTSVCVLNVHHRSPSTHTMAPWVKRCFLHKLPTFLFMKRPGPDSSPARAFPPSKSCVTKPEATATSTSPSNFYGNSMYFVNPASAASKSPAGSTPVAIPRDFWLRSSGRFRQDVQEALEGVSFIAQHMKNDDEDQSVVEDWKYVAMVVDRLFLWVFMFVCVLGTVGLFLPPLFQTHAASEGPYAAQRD
Kind of data set: 86Rb+ ion efflux assay, SH-SY5Y cells. It counts as cell-based. As to conditions: 86Rb+ efflux. From the text: (§1) Cell lines naturally or heterologously expressing specific, functional, human nAChR subtypes were used. The human clonal cell line TE671/RD naturally expresses human muscle-type α1*-nAChRs, containing α1, β1, γ, and δ subunits, with function detectable using ^86Rb^+ efflux assays. […] These cells heterologously express human nAChR chimeric (α6/3) subunits (wherein the extracellular, N-terminal, ligand-binding domain of the human nAChR α6 subunit replaces that domain in the nAChR α3 subunit) along with human β2 and β3 subunits. […] Cells were passaged once a week by splitting just-confluent cultures 1/300 (TE671/RD), 1/10 (SH-SY5Y), or 1/40 (transfected SH-EP1) in serum-supplemented medium to maintain log-phase growth.
(§2) One newer modification on these techniques involves low temperature incubation before assays to increase the surface expression of high sensitivity (HS) relative to low sensitivity (LS) α4β2 nAChRs and to enhance surface expression of (α6/3)β2β3-nAChRs. […] In brief, this allows us to determine efficacies of test compounds at LS and HS α4β2 nAChRs, respectively, as the ordinate values of the linear regressions at abscissa values of 0% and 100% of sazetidine-A efficacy.
(§3) Results are normalized to responses to a fully efficacious concentration of carbamylcholine (see Materials and Methods for details). […]

Data set [1] has as its system BALB/cJ and C57BL/6J mice. The note with it: 28 days oral administration; ref Vieyra-Reyes et al. [2008]; cited from earlier work.
Data set [2] deals with male 129SvJ;C57BL/6J F1 hybrid mice. The arrangement: method as in Turner et al. ([2010]). The note with it: chronic treatment; ref Turner et al. ([2010]); cited from earlier work.
For data set [3], the target named is T2, HS (high sensitivity) α4β2-nAChRs (Homo sapiens, UniProt P17787+P43681).
T2 construct: expressed in transfected cells; host or cells: SH-EP1 human epithelial cells (SH-EP1-hα4β2)
T2 sequence (P43681 29-627 limits assumed): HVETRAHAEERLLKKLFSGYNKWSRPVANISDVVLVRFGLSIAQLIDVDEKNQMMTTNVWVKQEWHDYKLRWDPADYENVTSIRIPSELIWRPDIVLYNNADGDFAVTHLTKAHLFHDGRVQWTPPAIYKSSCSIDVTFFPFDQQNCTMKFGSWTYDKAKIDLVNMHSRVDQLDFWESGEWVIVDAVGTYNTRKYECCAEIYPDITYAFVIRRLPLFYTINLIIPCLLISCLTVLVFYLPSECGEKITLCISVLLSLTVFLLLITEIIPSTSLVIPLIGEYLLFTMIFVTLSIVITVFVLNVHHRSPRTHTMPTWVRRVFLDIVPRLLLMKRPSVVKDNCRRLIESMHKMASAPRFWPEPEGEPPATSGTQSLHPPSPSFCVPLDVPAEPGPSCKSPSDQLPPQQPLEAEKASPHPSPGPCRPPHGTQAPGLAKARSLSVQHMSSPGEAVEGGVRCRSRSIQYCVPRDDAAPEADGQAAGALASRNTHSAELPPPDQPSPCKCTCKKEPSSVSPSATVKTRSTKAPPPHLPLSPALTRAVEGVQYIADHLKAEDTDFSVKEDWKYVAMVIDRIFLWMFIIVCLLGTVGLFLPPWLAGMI
T2 sequence (P17787 26-502): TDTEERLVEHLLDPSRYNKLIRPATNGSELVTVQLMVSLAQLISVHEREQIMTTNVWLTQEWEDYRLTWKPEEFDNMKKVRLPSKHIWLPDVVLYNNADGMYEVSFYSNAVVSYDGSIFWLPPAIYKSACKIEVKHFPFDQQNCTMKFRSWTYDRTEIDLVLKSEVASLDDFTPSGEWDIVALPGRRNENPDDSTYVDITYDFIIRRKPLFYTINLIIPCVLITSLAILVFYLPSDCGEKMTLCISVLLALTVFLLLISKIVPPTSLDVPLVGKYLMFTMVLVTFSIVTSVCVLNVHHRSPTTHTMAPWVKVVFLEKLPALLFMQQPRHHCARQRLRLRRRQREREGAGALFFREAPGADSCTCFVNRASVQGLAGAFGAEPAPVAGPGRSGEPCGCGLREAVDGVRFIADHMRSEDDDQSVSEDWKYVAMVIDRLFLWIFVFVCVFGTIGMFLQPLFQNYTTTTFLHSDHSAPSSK
Kind of data set: 86Rb+ ion efflux assay, HS α4β2 efficacy by regression on sazetidine-A efficacy. Format: cell-based. The note with it: relative to carbamylcholine.
Description: as §1, §2, §3

In another data set the target is α7 nAChR. The note with it: ref Rollema et al. [2010]; read-out: Ki α7; cited from earlier work.
For data set [4], the target named is T3, LS (low sensitivity) α4β2-nAChRs (Homo sapiens, UniProt P17787+P43681).
T3 construct: expressed in transfected cells; host or cells: SH-EP1 human epithelial cells (SH-EP1-hα4β2)
T3 sequence (P43681 29-627 limits assumed): as the sequence (P43681 29-627 limits assumed) above
T3 sequence (P17787 26-502): as the sequence (P17787 26-502) above
Kind of data set: 86Rb+ ion efflux assay, LS α4β2 efficacy by regression on sazetidine-A efficacy. It counts as cell-based. The note with it: relative to carbamylcholine.
Description: as §1, §2, §3

A further data set concerns the target T4, human α4β2-nAChR (Homo sapiens, UniProt P17787+P43681).
T4 construct: expressed in transfected cells; host or cells: SH-EP1 human epithelial cells (SH-EP1-hα4β2)
Kind of data set: 86Rb+ ion efflux assay, SH-EP1-hα4β2 cells. It counts as cell-based. As to conditions: normalized to a full antagonist.
Description: as §1, §2, §3

The next data set addresses T5, human (α6/3)β2β3-nAChR (Homo sapiens, UniProt P17787+P32297+Q15825).
T5 construct: expressed in transfected cells; host or cells: SH-EP1 human epithelial cells (SH-EP1-h(α6/3)β2β3)
Kind of data set: 86Rb+ ion efflux assay, SH-EP1-h(α6/3)β2β3 cells. It counts as cell-based.
Description: as §1, §2
Results are normalized to responses to a fully efficacious concentration of carbamylcholine (see Materials and Methods for details). […] The ordinate intercepts of the linear regressions at a sazetidine-A efficacy (abscissa) of 0% represent the efficacies at LS α4β2-nAChRs, while the ordinate intercepts at a sazetidine-A efficacy of 100% represent the efficacies at HS α4β2-nAChRs.

Another data set concerns the target α4β4 nAChR. The note with it: ref Rollema et al. [2010]; cited from earlier work.
The next data set relates to α4β2*-nAChR. Further details: method as in Weber et al. [2013]. As to conditions: estimate at free concentration in brain; ref Weber et al. [2013]; cited from earlier work.

Entries after “also recorded” stand apart in the source; their conditions may differ. Where two headings read alike, the source gives them in different places.

T5 sequence (Q15825+P32297 fused with the stated changes): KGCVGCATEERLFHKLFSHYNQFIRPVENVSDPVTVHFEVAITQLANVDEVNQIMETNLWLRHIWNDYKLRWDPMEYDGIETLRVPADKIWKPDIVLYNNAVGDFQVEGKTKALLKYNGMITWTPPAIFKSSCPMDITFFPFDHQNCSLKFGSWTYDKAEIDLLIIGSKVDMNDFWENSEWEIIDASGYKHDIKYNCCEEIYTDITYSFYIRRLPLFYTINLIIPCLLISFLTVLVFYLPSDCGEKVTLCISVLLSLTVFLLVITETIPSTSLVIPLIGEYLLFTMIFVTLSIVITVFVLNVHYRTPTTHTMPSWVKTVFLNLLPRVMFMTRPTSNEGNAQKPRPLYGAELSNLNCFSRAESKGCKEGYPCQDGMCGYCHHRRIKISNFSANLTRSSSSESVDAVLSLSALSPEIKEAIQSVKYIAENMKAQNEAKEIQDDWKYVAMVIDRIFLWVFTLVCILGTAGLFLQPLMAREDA
T5 sequence (P17787 26-502): as the sequence (P17787 26-502) above
T5 sequence (Q05901 25-458 partner limits assumed): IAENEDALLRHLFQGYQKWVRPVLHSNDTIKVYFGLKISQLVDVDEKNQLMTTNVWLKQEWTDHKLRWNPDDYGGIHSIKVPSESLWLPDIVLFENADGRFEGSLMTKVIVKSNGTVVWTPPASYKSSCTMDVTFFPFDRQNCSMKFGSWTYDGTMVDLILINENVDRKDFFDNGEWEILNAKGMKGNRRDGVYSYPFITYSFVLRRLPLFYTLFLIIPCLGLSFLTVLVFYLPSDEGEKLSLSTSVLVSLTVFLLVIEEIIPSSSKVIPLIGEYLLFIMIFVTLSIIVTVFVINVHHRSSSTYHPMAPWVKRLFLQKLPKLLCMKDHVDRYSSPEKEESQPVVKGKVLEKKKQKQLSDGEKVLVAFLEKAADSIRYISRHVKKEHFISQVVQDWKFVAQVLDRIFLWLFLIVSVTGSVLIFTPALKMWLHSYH
T4 sequence (P43681 29-627 limits assumed): as the sequence (P43681 29-627 limits assumed) above
T4 sequence (P17787 26-502): as the sequence (P17787 26-502) above

Take `O=c1c(-c2ccccn2)ccc2n1CC1CNCC2C1` (stereo not shown) [3-(2-pyridyl)cytisine]: the “intrinsic efficacy at both LS and HS receptors” value in the data set with LS and HS α4β2-nAChR was “no more than 10%”. The inhibitory constant (Ki) (as a rule, a dissociation constant, usually derived from enzyme kinetics or from competition with a known ligand) at α7* nAChR (ref Mineur et al. ([2009])) was 1100 nM; on α4β2* nAChR (ref Mineur et al. ([2009])) it was 0.91 nM; on α3β4* nAChR it was 119 nM. In the data set with C57BL/6J mice, the “latency to eat in NSF” value is recorded as “decreased the latency to eat”. Also, the “dose found effective in the NSF test” value with C57BL/6J mice (lower dose only (0.3 vs. 0.6 mg/kg)) is recorded as 0.3 mg/kg.

`O=c1cccc2n1C[C@@H]1CNC[C@H]2C1` [(-)-cytisine]: the “SmartCube antidepressant (green) component” value in the data set on Male C57 BL6 mice (1.0 mg/kg, i.p.) was “potential antidepressive-like behavior; also recorded: most pronounced”. For the same molecule, the SmartCube side effects entry in the data set with Male C57 BL6 mice (0.5 and 1.0 mg/kg, i.p.) is given as “Minimal side effects; also recorded: no obvious side effects”. The SmartCube behavioral signature entry in the data set with Male C57 BL6 mice (i.p.) is on record as “robust CNS drug-like signatures”. The results for the Ki at α3β4 nAChR (ref Rollema et al. ([2010])), on α7* nAChR (ref Rollema et al. ([2010])) and at α4β2 nAChR (ref Rollema et al. ([2010])) were 480 nM, 5890 nM and 2 nM, respectively. In addition, in the data set with LS and HS α4β2-nAChR, the “intrinsic efficacy at both LS and HS receptors” value is recorded as “no more than 10%”. The “latency to eat in NSF” value in the data set on C57BL/6J mice is listed as “decreased the latency to eat”. The “dose not tolerated by mice” value in the data set with mice is on record as > 1.5 mg/kg.

`FC(F)(F)c1ccc2c(c1)[C@H]1CNC[C@@H]2C1` [CP-601927]: the Ki at α3β4 nAChR (ref Mineur et al. ([2011])) was 102 nM; at α4β2 nAChR (ref Mineur et al. ([2011])), 1.2 nM. Besides, in the data set with C57BL/6J mice, the “latency to eat in NSF” value is reported as “increased the latency to eat”.

For `CN1CCC[C@H]1c1cccnc1` [Nicotine], the “Agonism α3β4*-nAChR Efficacy” value at human α3β4*-nAChR was 90%. Moreover, the “behavioral changes in NSF” value in [1] is given as “failed to show significant behavioral changes”.

Consider `OCCCCC#Cc1cncc(OC[C@@H]2CCN2)c1` [Sazetidine-A], for which the “time needed to approach food, NIH paradigm” value in [2] is reported as “decreased the time needed to approach food”. The inhibition constant (Ki) was 10000 nM at α3β4 nAChR (ref Xiao et al. ([2006])), 0.4 nM on α4β2 nAChR (ref Xiao et al. ([2006])) and 0.9 nM at α4β2* nAChR (ref Xiao et al. ([2006])).

As for `c1cnc2cc3c(cc2n1)[C@@H]1CNC[C@H]3C1` [Varenicline], in data set [3], the “Agonism α4β2-nAChR HS Efficacy” value came to 105 ± 4.4%. The values for the Ki at α7 nAChR and at α4β4 nAChR were 125 nM and 110 nM, respectively. For the same molecule, the “Agonism α4β2-nAChR LS Efficacy” value in [4] stood at 34 ± 2.8%. Moreover, the “time needed to approach food, NIH paradigm” value in data set [2] is “no effect”. The SmartCube antidepressant effects result with Male C57 BL6 mice (1 mg/kg) is “weak antidepressant effects”. Also, in the data set with Male C57 BL6 mice (1.0 mg/kg, i.p.), the SmartCube side effects result is given as “Minimal side effects”. Also, the “SmartCube side effect component, probability” value in the data set on Male C57 BL6 mice (3.0 mg/kg, i.p.) is “about 30%”. In the data set with Male C57 BL6 mice (i.p.), the SmartCube behavioral signature entry is on record as “robust CNS drug-like signatures”. The “Inactivation α4β2-nAChR Efficacy” value at human α4β2-nAChR was determined as 79 ± 3.3%. The “Agonism α3β4*-nAChR Efficacy” value on human α3β4*-nAChR was determined as 110%. The EC50 on human (α6/3)β2β3-nAChR (86Rb+ efflux, read-out: Agonism (α6/3)β2β3-nAChR pEC50 (converted)) is 17.8 nM. For the same molecule, the “Agonism (α6/3)β2β3-nAChR Efficacy” value at human (α6/3)β2β3-nAChR (normalized to a full agonist) was 17 ± 0.5. In addition, the “Inactivation (α6/3)β2β3-nAChR Efficacy” value on human (α6/3)β2β3-nAChR (normalized to a full antagonist) stood at 74 ± 2.6%. Moreover, in the data set on C57BL/6J mice, the “latency to eat in NSF” value is “did not show any effect”.

With `CNC1(C)C2CCC(C2)C1(C)C` (stereo not shown) [mecamylamine], the “block of α4β2*-nAChR function” value in the data set with α4β2*-nAChR is given as ~20%.
